According to patent US20080286357A1, “MULTI-FUNCTIONAL PARTICULATE DELIVERY SYSTEM FOR PHARMACOLOGICALLY ACTIVE INGREDIENTS” (Balchem Corporation, priority 2007, published 2008):

Experiment: Flow and bulk density of powder blend
Format: physicochemical
Description: The procedure is described in USP<616<Bulk Density and Tapped Density.
CabOSil with ubidecarenone is co-sieved through a 30-mesh. The ProSolv HD90 and multi-functional particulate system are added. The powder mix is blended at maximum speed for ten minutes. The powder mix is then sieved through a 40-mesh. Polyplasdone Crospovidone is added, and the mixture is blended at maximum speed for two minutes Finally, Mg-stearate is added, and the mixture is blended at maximum speed for two minutes.

flow (in words): does not flow
SMILES: COC1=C(OC)C(=O)C(C/C=C(\C)CC/C=C(\C)CC/C=C(\C)CC/C=C(\C)CC/C=C(\C)CC/C=C(\C)CC/C=C(\C)CC/C=C(\C)CC/C=C(\C)CCC=C(C)C)=C(C)C1=O [Ubidecarenone]
